Patent US4400517A, “Phosphoric esters derived from 1,2,4-triazole having an insecticidal, nematocidal and acaricidal action, and their preparation” (priority 1976, dated 1983)
Like-named read-outs stand apart in the source and are kept apart here.

How the values were obtained:
Tetranychus urticae [1] = test: Biological activity on adults of Tetranychus urticae (Acari); type: in vivo; details: 24 h
Description: (5) Biological activity on adults of Tetranychus urticae (Acari)
Discs of bean leaves were infested with adult acari and then sprinkled with an aqueous dispersion of the products under examination (see Tables 4 and 5).
The mortality percentage was determined after 24 hours from treatment (untreated leaf discs, mortality=0).

Culex pipiens = test: Biological activity on Culex pipiens larvae (Diptera); type: in vivo; details: 24 h
Description: (4) Biological activity on Culex pipiens (Diptera)
Into glasses containing an aqueous dispersion of the products under examination (see Tables 4 and 5) there were introduced mosquito larvae of third and fourth age.
The mortality percentage of the larvae (glasses containing pure water=0) was determined after 24 hours from treatment.

Macrosiphum euphorbiae = test: Biological activity on Macrosiphum euphorbiae (Aphides); type: in vivo; details: potato plants, 24 h
Description: (1) Biological activity on Macrosiphum euphorbiae (Aphides)
Potato plants grown in pots were infested with adult females of aphides and, after several hours, were sprinked with an aqueous dispersion of the products under examination (see TABLE 5).
The percentage of mortality was assessed after 24 hours after the treatment (untreated plants=0).

Pieris brassicae = test: Biological activity on Pieris brassicae (Lepidoptera); type: in vivo; details: 48 h
Description: (2) Biological activity on Pieris brassicae (Lepidotera)
Cut-off cauliflower leaves were sprinkled with an aqueous dispersion of the products under examination (see TABLE 5).
After drying, the leaves were infested with 5-day old larvae. The percentage of mortality of the larvae (untreated leaves=0) was determined after 48 hours from treatment.

Spodoptera littoralis = test: Biological activity on Spodoptera littoralis (Lepidoptera); type: in vivo; details: 48 h
Description: (7) Biological activity on Spodoptera littoralis (Lepidoptera)
Cut tobacco leaves were sprinkled with an aqueous dispersion of the products under examination (see Tables 4 and 5).
After drying, the leaves were infested with 5-day old larvae.
The percentage of mortality of the larvae was determined after 48 hours from treatment (untreated leaves, mortality=0).

Tetranychus urticae [2] = test: Biological activity on Tetranychus urticae eggs (Acari); type: in vivo; details: bean leaf discs, 144 h
Description: (6) Biological activity on Tetranychus urticae (Acari)
Small discs of bean leaves were infested with Acari eggs and were then sprinkled with an aqueous dispersion of the products under examination (see Table 5).
The mortality percentage was determined after 6 days from treatment (untreated leaf discs, mortality=0).

Blatta orientalis = test: Biological activity on Blatta orientalis (Ortoptera); type: in vivo; details: Blatta orientalis, 48 h, read-out: Activity (mortality class), Blatta O.
Description: (10) Biological activity on Blatta orientalis (Ortoptera)
The bottom and walls of glass crystallizers were treated uniformly with an acetonic solution of the products under examination (see Tables 4 and 5). After evaporation of the solvent, into each crystallizer were introduced ten 80-100 days old neanides. The crystallizers were then closed with a metal net cover. After 24 hours from the start of the treatment, the insects were transferred to similar untreated crystallizers, and there were appropriately nourished in conventional manner.
The percentage of mortality (untreated insects=0) was determined after 48 hours from the start of the treatment.

[3] = test system: Leptinotarsa decemlineata; test: Biological activity on Leptinotarsa decemlineata (Coleoptera); type: in vivo; details: 48 h
Description: (3) Biological activity on Leptinotarsa decemlineata (Coleoptera)
Small potato plants grown in pots were infested with 4-day old larvae, and were then sprinkled with an aqueous dispersion of the products under examination (see Tables 4 and 5).
The mortality percentage (untreated small plants=0) was determined after 48 hours from treatment.

[4] = Toxicity on albino rats by oral administration; details: rat, in vivo
Locusta M. = test: Activity on Locusta M.; details: in vivo
[5] = read-out: Activity (mortality class), Tetranychus U. (adults)
[6] = read-out: Activity (mortality class), Culex P. (larvae)
[7] = read-out: Activity (mortality class), Pieris B.
[8] = read-out: Activity (mortality class), Spodoptera L.
[9] = read-out: Activity (mortality class), Leptinotarsa D.
[10] = 0.01%o, Table 5, read-out: Activity (mortality class), Tetranychus U. (adults)
[11] = 1%o, Table 5, read-out: Activity (mortality class), Tetranychus U. (adults)
[12] = 2 ppm, Table 5, read-out: Activity (mortality class), Culex P. (larvae)
[13] = 1%o, Table 5, read-out: Activity (mortality class), Pieris B.
[14] = 0.05%o, Table 5, read-out: Activity (mortality class), Spodoptera L.
[15] = 1%o, Table 5, read-out: Activity (mortality class), Spodoptera L.
[16] = 0.05%o, Table 5, read-out: Activity (mortality class), Leptinotarsa D.
[17] = 1%o, Table 5, read-out: Activity (mortality class), Leptinotarsa D.
[18] = 0.01%o, Table 5, read-out: Activity (mortality class), Pieris B.
[19] = 0.02 ppm, Table 5, read-out: Activity (mortality class), Culex P. (larvae)

| Structure (SMILES) | mortality at 0.1 % (Tetranychus urticae [1]; [5]) [%] | mortality at 2 ppm (Culex pipiens; [6]) [%] | Activity (mortality class), Macrosiphum E. (Macrosiphum euphorbiae) | mortality at 0.1 % (Pieris brassicae; [7]) [%] | mortality at 0.1 % (Spodoptera littoralis; [8]) [%] | Activity (mortality class), Tetranychus U. (eggs) (Tetranychus urticae [2]) | mortality at 0.1 % [3, 9] [%] | mortality at 0.001 % (Tetranychus urticae [1]; [10]) [%] | mortality at 0.1 % (Tetranychus urticae [1]; [11]) [%] | mortality at 2 ppm (Culex pipiens; [12]) [%] | mortality at 0.1 % (Pieris brassicae; [13]) [%] | mortality at 0.1 % (Spodoptera littoralis; [15]) [%] | mortality at 1 g/m2 (Blatta orientalis; 1 g/m^2, Table 5) [%] | mortality at 0.005 % [3, 16] [%] | mortality at 0.1 % [3, 17] [%] | Activity (mortality class), Locusta M. (Locusta M.) | also measured |
| --- | --- | --- | --- | --- | --- | --- | --- | --- | --- | --- | --- | --- | --- | --- | --- | --- | --- |
| C=C(C)c1nc(OP(=S)(OCC)OCC)n(C)n1 [M 8593] | 100 | 100 | ++ (100% of mortality) | 100 | 100 | ± (10-69% of mort.) | 100 |  |  |  |  |  |  |  |  |  | mortality at 0.001 % (Tetranychus urticae [1]; [5]): 10 to 69%; mortality at 0.02 ppm (Culex pipiens; [6]): 10 to 69%; mortality at 0.01 g/m2 (Blatta orientalis): 70 to 99%; mortality at 1 g/m2 (Blatta orientalis): 100% |
| CCOP(=S)(OCC)Oc1nc(C(O)CSC)nn1-c1ccccc1 (stereo not shown) [M 9173] | 100 | 100 | ++ (100% of mortality) | 100 | 100 |  | 100 |  |  |  |  |  |  |  |  |  | mortality at 1 g/m2 (Blatta orientalis): 100% |
| CCOP(=S)(OCC)Oc1nc(Cl)n(C(C)C)n1 [Miral®, Diethyl-(1-isopropyl-5-chloro-1,2,4-triazole-3-yl) phosphoro-thionate, reference compound] |  |  |  |  |  |  |  |  |  |  |  |  |  |  |  |  | LD50 [4]: 60 mg/kg |
| CC=C(Cl)c1nc(OP(=S)(OCC)OCC)n(C)n1 [M 8634] |  |  |  |  |  |  |  | 10 to 69 | 100 | 100 | 100 | 100 | 100 | 100 | 100 |  | LD50 [4]: 1400 mg/kg; mortality at 0.005 % (Spodoptera littoralis; [14]): 10 to 69%; mortality at 0.01 g/m2 (Blatta orientalis; 0,01 g/m^2, Table 5): 10 to 69% |
| CC=C(Br)c1nc(OP(=S)(OCC)OCC)n(C)n1 [M 8549] |  |  |  |  |  |  |  | 10 to 69 | 100 | 100 | 100 | 100 | 100 | 100 | 100 |  | LD50 [4]: 1000 mg/kg; mortality at 0.001 % (Pieris brassicae; [18]): 10 to 69% |
| C=CCn1nc(C=C(Cl)Cl)nc1OP(=S)(OCC)OCC [M 8764] | 100 | 100 | ++ (100% of mortality) |  | 100 | ++ (100% of mortality) | 100 |  |  |  | 100 |  | 100 |  |  | ++ (100% of mortality) | mortality at 0.001 % (Tetranychus urticae [1]; [5]): 100%; mortality at 0.02 ppm (Culex pipiens; [6]): 100%; mortality at 0.005 % (Spodoptera littoralis; [8]): 100%; mortality at 0.005 % [3, 9]: 100% |
| CC=Cc1nc(OP(=S)(OCC)OCC)n(C)n1 [M 8119] |  |  |  |  |  |  |  |  |  |  |  |  |  |  |  | ++ (100% of mortality) | mortality at 0.001 % (Tetranychus urticae [1]; [5]): 70 to 99%; mortality at 0.02 ppm (Culex pipiens; [6]): 0 to 9%; mortality at 0.001 % (Pieris brassicae; [7]): 10 to 69%; mortality at 0.005 % (Spodoptera littoralis; [8]): 10 to 69%; mortality at 0.01 g/m2 (Blatta orientalis): 100%; mortality at 0.005 % [3, 9]: 10 to 69% |
| C=Cc1nc(OP(=S)(OCC)OCC)n(C)n1 [M 8476] |  |  |  |  |  |  |  | 100 |  |  |  |  |  |  |  | ++ (100% of mortality) | mortality at 0.02 ppm (Culex pipiens; [6]): 10 to 69%; mortality at 0.01 g/m2 (Blatta orientalis; 0,01 g/m^2, Table 5): 100% |
| CCOP(=S)(OCC)Oc1nc(C(C)=C(Cl)Cl)nn1C [M 8550] |  |  |  |  |  |  |  | 10 to 69 | 100 | 100 | 100 | 100 | 100 | 100 | 100 |  | LD50 [4]: 1700 mg/kg; mortality at 0.02 ppm (Culex pipiens; [19]): 70 to 99%; mortality at 0.001 % (Pieris brassicae; [18]): 100%; mortality at 0.01 g/m2 (Blatta orientalis; 0,01 g/m^2, Table 5): 10 to 69% |
| CCOP(=S)(OCC)Oc1nc(C(=O)CSC)nn1-c1ccccc1 [M 8169] | 100 | 100 | ± (10-69% of mort.) | 100 | 10 to 69 | ++ (100% of mortality) | 100 |  |  |  |  |  |  |  |  |  |  |
| CCOP(=S)(OCC)Oc1nc(C(C)=C(Cl)Cl)nn1CC [M 9141] | 100 | 100 | ++ (100% of mortality) | 100 | 100 | ++ (100% of mortality) | 100 |  |  |  |  |  |  |  |  | ++ (100% of mortality) | mortality at 0.001 % (Tetranychus urticae [1]; [5]): 10 to 69%; mortality at 0.02 ppm (Culex pipiens; [6]): 70 to 99%; mortality at 1 g/m2 (Blatta orientalis): 100%; mortality at 0.005 % [3, 9]: 100% |
| CCOP(=S)(OCC)Oc1nc(C(C)SC)nn1-c1ccccc1 (stereo not shown) [M 8170] | 100 | 100 | + (70-99% of mort.) | 100 | 70 to 99 | ++ (100% of mortality) | 100 |  |  |  |  |  |  |  |  | ++ (100% of mortality) |  |
| CCCCn1nc(C=C(Cl)Cl)nc1OP(=S)(OCCC)OCCC [M 8475] | 10 to 69 | 100 | ± (10-69% of mort.) | 100 | 10 to 69 | ++ (100% of mortality) | 100 |  |  |  |  |  |  |  |  | ± (10-69% of mort.) | mortality at 1 g/m2 (Blatta orientalis): 0 to 9% |
| CCOP(=S)(OCC)Oc1nc(C(C)OC)nn1-c1ccccc1 (stereo not shown) [M 8167] |  | 100 | + (70-99% of mort.) |  |  | ++ (100% of mortality) |  |  | 100 |  | 100 | 100 |  |  | 100 |  |  |
| CCCCn1nc(C=C(Cl)Cl)nc1OP(=S)(OCC)OCC [M 8474] |  |  |  |  |  |  |  | 0 to 9 |  |  |  |  |  | 100 |  |  | mortality at 0.02 ppm (Culex pipiens; [19]): 100%; mortality at 0.001 % (Pieris brassicae; [18]): 100%; mortality at 0.005 % (Spodoptera littoralis; [14]): 100%; mortality at 0.01 g/m2 (Blatta orientalis; 0,01 g/m^2, Table 5): 0 to 9% |
| CCOP(=S)(OCC)Oc1nc(C(Br)=C(Br)Br)nn1C [M 8089, O,O-diethyl-O-(1-methyl-3-tribromovinyl-5-triazolyl)-thiophosphate] |  |  |  |  |  |  |  |  | 100 | 100 | 100 | 100 | 100 |  | 100 |  |  |
| CCOP(=S)(OCC)Oc1nc(C=C(Br)Br)nn1C [M 8308] |  |  |  |  |  |  |  |  | 100 | 100 | 100 | 100 | 100 |  | 100 |  | mortality at 0.02 ppm (Culex pipiens; [19]): 100% |
| CCCOP(=S)(OCCC)Oc1nc(C=C(Cl)Cl)nn1C [M 8448] |  |  | ++ (100% of mortality) |  |  | ++ (100% of mortality) |  | 100 | 100 | 100 | 100 | 100 | 100 | 100 | 100 | ± (10-69% of mort.) | mortality at 0.001 % (Pieris brassicae; [18]): 10 to 69% |
| CC=Cc1nc(OP(=S)(OCC)OCC)n(C(C)C)n1 [M 9137] |  |  | ++ (100% of mortality) |  |  | ++ (100% of mortality) |  | 10 to 69 | 100 | 100 | 100 |  | 100 | 100 | 100 |  | mortality at 0.01 g/m2 (Blatta orientalis; 0,01 g/m^2, Table 5): 10 to 69% |
